Consider three molecules from US10633379B2, “Bromodomain inhibitors” (AbbVie Inc., priority 2016, dated 2020).

Data set [1] in a line: Xenograft tumor growth inhibition assay, SKM-1 (AML). The format is in vivo, Female SCID Beige mice. Conditions: female, SCID Beige, in vivo, mouse SKM-1 xenograft, oral, read-out: AUC, mouse efficacy, AML (SKM-1).
For data set [2], the system named is SKM-1_FP1 xenograft tumors. The data set is described as above. The format is in vivo, Female SCID Beige mice. Conditions: mouse SKM-1 xenograft, oral.
Data set [3] is described as follows: Xenograft tumor growth inhibition assay, LNCaP (prostate). The format is in vivo, Male NSG mice. Conditions: male, NSG, in vivo, mouse LNCaP xenograft, oral, read-out: AUC, mouse efficacy, Prostate (LNCaP). The method, then: (§1) The effect of compound of Example 32, 35 and Compound X to inhibit the growth of SKM-1_FP1 and LNCaP-FGC xenograft tumors was evaluated. Female SCID Beige mice (Charles River) were utilized for the SKM-1_FP1 flank xenograft model. Male NSG mice (JAX Labs) were used for the LNCaP-FGC study. Cells were suspended in PBS, mixed with Matrigel (phenol red free, Becton Dickinson Biosciences Discovery Labware) in a ratio of 1:4 (V/V) and inoculated subcutaneously into the flank (five million cells per site) of the mice. Inoculated mice were randomized into groups and treatment was initiated when mean tumor volume was 0.2-0.25 cm^3. The compounds were administered orally in (volume %): 1.5% DMSO, 30% PEG 400, and 68.5% Phosol 53 MCT. Tumor growth in the flank was assessed by measuring tumor size with calipers and calculating volume using the formula (L×W^2/2). Study groups were terminated prior to tumor volume reaching 3 cm^3. Inhibition of tumor growth was assessed at the time the vehicle-treated group was terminated by calculating the ratio of the mean volume of the test drug group to the mean volume of the untreated (control) group (T/C) and calculating percent tumor growth inhibition (% TGI).

Data set [4] concerns LNCaP-FGC xenograft tumors. Described as above. The format is in vivo, Male NSG mice. Conditions: mouse LNCaP xenograft, oral. The method, then: as §1
The nature of data set [5]: Fourteen day rat toxicology study, maximum tolerated exposure. As to conditions: for AUC at 14 day: po. Here is the method: Compounds were dosed orally once daily, in Sprague-Dawley rats.
The next data set addresses BRD4 (BDI_K57-E168) (Homo sapiens (Human), UniProt O60885). The data set can be described thus: TR-FRET bromodomain binding assay, BRD4 BDI. As to conditions: mean Ki, calculated from IC50, probe Kd and probe concentration. A digest of the protocol: (§2)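 Probe displacement measured by TR-FRET after 1 h at room temperature, in 20 mM sodium phosphate pH 6.0 and 2% DMSO. BDI used 12 nM protein with 100 nM probe, BDII 4 nM with 30 nM probe, each with 1 nM europium antibody. Ki derived from fitted IC50, probe Kd and probe level.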

The next data set concerns the target BRD4 (BDII_E352-M457) (Homo sapiens (Human), UniProt O60885). The data set can be described thus: TR-FRET bromodomain binding assay, BRD4 BDII. Conditions: mean Ki, calculated from IC50, probe Kd and probe concentration. A digest of the protocol: as §2
Setting [6] is: Sprague-Dawley, rat, in vivo, 30 mg/kg.
[7] abbreviates: Sprague-Dawley, rat, in vivo, 14 day.

What is called AUC is the area under the concentration-time curve, a measure of exposure. Turning to `CCNC(=O)c1cc2c(-c3cc(C(C)(C)O)ccc3Oc3c(C)cc(F)cc3C)cn(C)c(=O)c2[nH]1` [Example 35, N-ethyl-4-[2-(4-fluoro-2,6-dimethylphenoxy)-5-(2-hydroxypropan-2-yl)phenyl]-6-methyl-7-oxo-6,7-dihydro-1H-pyrrolo[2,3-c]pyridine-2-carboxamide], the AUC in data set [1] (dose 4.7 mg/kg) turned out to be 840 ng·h/mL; in data set [3] (dose 4.7 mg/kg) it was 1100 ng·h/mL. The “% TGI, AML (SKM-1)” value in data set [2] (dose 4.7 mg/kg) stood at 74%. In addition, in data set [4] (dose 4.7 mg/kg), the “% TGI, Prostate (LNCaP)” value came out at 64%. Moreover, the area under the curve (AUC) at 14 day in data set [5] (setting [6]) came to 27500 ng·h/mL.

Usually Ki stands for the dissociation constant of the complex between target and ligand, obtained from inhibition or displacement. In the case of `CCS(=O)(=O)Nc1ccc(Oc2ccc(F)cc2F)c(-c2cn(C)c(=O)c3[nH]ccc23)c1` [Compound X, N-[4-(2,4-difluorophenoxy)-3-(6-methyl-7-oxo-6,7-dihydro-1H-pyrrolo[2,3-c]pyridin-4-yl)phenyl]ethanesulfonamide, reference compound], the Ki was 2.09 nM on BRD4 (BDI_K57-E168) and 0.952 nM at BRD4 (BDII_E352-M457). Besides, the exposure (AUC) in data set [1] (dose 1 mg/kg) and in data set [3] (dose 1 mg/kg) was 1200 ng·h/mL each time. For the same molecule, in data set [2] (dose 1 mg/kg), the “% TGI, AML (SKM-1)” value came out at 76%. Besides, the “% TGI, Prostate (LNCaP)” value in data set [4] (dose 1 mg/kg) came to 64%. The AUC at 14 day in data set [5] (Sprague-Dawley, rat, in vivo, 1 mg/kg) turned out to be 725 ng·h/mL. The “AUC ratio (rat maximum tolerated exposure/mouse efficacious exposure) Prostate (LNCaP)” value in data set [5] (exposure margin versus mouse LNCaP xenograft) worked out at 0.6x. Also, the “AUC ratio (rat maximum tolerated exposure/mouse efficacious exposure) AML (SKM-1)” value in data set [5] (exposure margin versus mouse SKM-1 xenograft) is reported as 0.6x.

With `Cc1cccc(C)c1Oc1ccc(C(C)(C)O)cc1-c1cn(C)c(=O)c2[nH]c(C(=O)NC(C)(C)C)cc12` [Example 32, N-tert-butyl-4-[2-(2,6-dimethylphenoxy)-5-(2-hydroxypropan-2-yl)phenyl]-6-methyl-7-oxo-6,7-dihydro-1H-pyrrolo[2,3-c]pyridine-2-carboxamide], the inhibitory constant (Ki) at BRD4 (BDI_K57-E168) is 599 nM; on BRD4 (BDII_E352-M457), 2.8 nM. In addition, the exposure (AUC) in data set [1] (dose 9.4 mg/kg) was determined as 5000 ng·h/mL; in data set [3] (dose 30 mg/kg) it was 12600 ng·h/mL. For the same molecule, the “% TGI, AML (SKM-1)” value in data set [2] (dose 9.4 mg/kg) was determined as 76%. The “% TGI, Prostate (LNCaP)” value in data set [4] (dose 30 mg/kg) was determined as 60%. Moreover, the “AUC ratio (rat maximum tolerated exposure/mouse efficacious exposure) AML (SKM-1)” value in data set [5] (setting [7]) was determined as 14x. In addition, the “AUC ratio (rat maximum tolerated exposure/mouse efficacious exposure) Prostate (LNCaP)” value in data set [5] (setting [7]) is reported as 5.5x. Moreover, the AUC at 14 day in data set [5] (setting [6]) turned out to be 69200 ng·h/mL.
